According to US10806736B2 (priority 2018, dated 2020):
Entries after “also recorded” stand apart in the source; their conditions may differ.

Assays:
p53 = p53 protein expression by western blotting in macrophages infected with M. tuberculosis; type: cell-based; conditions: rat BMDMs infected with M. tuberculosis H37Ra (one bacterium per cell); 10 μM; compared to Nutlin-3α; β-actin inner control
From the text: It is confirmed whether p53 is expressed, when a cell is infected with M. tuberculosis, by subjecting the cell to the compound (K279-1558). Also, in order to analyze the role of p53 expression, the effect of p53 expression is confirmed from macrophages infected with M. tuberculosis. The cells were infected with avirulent M. tuberculosis (Mycobacterium tuberculosis H37Ra) in a ratio of one bacterium per cell by using bone marrow-derived macrophages (BMDMs), which is a rat-derived macrophage, and then the cells were subjected to Nutlin-3α and the compound (K279-1558) in a concentration of 10 μM. Thereafter, the number of M. tuberculosis surviving in the cells was measured.

[1] = tested on: Mycobacterium tuberculosis H37Ra; type: cell-based; conditions: 10 μM; after 24 hours

SMILES	p53 activity / degree of p53 protein expression (western blotting) (p53)	number of M. tuberculosis surviving in macrophages [1]
CCC(SC1=Nc2ccccc2C2=NC(CC(=O)NCCc3ccccc3)C(=O)N12)C(=O)NCc1ccc(C)cc1 (stereo not drawn) [K279-1558]	remarkably higher; also recorded: increases remarkably	dropped sharply; also recorded: decreased sharply
COc1ccc(C2=N[C@@H](c3ccc(Cl)cc3)[C@@H](c3ccc(Cl)cc3)N2C(=O)N2CCNC(=O)C2)c(OC(C)C)c1 [Nutlin-3α, reference compound]	–	decreased sharply
